Source: ChEMBL document CHEMBL5442219

Experiments:
Conditions in all cases: Compound concentration 10 µM
[1] = target: T1, Muscarinic acetylcholine receptor M5 (Homo sapiens) (UniProt P08912)
T1 sequence (whole entry): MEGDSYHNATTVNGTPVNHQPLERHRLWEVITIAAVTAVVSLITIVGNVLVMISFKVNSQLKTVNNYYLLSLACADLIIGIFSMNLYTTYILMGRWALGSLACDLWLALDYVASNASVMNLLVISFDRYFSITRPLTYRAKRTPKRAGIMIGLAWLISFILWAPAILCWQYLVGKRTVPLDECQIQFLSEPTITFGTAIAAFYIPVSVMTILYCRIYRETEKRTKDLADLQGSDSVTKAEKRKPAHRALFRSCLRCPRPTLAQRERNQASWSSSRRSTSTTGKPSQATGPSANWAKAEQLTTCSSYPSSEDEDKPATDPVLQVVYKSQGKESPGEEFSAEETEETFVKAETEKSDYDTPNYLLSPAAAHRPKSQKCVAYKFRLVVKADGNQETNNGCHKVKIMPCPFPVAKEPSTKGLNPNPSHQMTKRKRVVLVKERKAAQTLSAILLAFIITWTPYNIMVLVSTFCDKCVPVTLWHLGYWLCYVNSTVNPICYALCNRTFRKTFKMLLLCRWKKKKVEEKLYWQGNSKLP
Description: PDSP Primary Binding target: CHRM5 - Compounds are tested at 10 uM concentration, plate are incubated at room temperature in the dark for 90 minutes. Reaction are stopped by vacuum filtration onto 0.3% polyethyleneimine soaked filter mats using Filtermate harvester. Scintilation cocktail is then melted onto microwave-dried filters on a hot plate and the radio activity is counted in Microbia counter.

[2] = target: T2, Muscarinic acetylcholine receptor M2 (Homo sapiens) (UniProt P08172)
T2 sequence (whole entry): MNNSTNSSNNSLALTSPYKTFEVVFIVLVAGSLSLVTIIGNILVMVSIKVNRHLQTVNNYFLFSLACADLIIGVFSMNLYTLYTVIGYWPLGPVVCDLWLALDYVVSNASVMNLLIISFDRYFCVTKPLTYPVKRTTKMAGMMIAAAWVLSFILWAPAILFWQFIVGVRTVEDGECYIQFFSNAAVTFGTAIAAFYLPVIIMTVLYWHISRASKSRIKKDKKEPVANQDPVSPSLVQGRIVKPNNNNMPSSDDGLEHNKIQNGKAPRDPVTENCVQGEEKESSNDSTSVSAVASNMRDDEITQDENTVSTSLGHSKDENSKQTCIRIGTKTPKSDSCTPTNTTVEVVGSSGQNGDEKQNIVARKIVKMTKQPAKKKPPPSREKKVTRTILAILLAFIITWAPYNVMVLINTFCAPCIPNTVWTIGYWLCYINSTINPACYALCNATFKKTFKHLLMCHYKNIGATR
Description: PDSP Primary Binding target: CHRM2 - Compounds are tested at 10 uM concentration, plate are incubated at room temperature in the dark for 90 minutes. Reaction are stopped by vacuum filtration onto 0.3% polyethyleneimine soaked filter mats using Filtermate harvester. Scintilation cocktail is then melted onto microwave-dried filters on a hot plate and the radio activity is counted in Microbia counter.

[3] = target: T3, D(4) dopamine receptor (Homo sapiens) (UniProt P21917)
T3 sequence (whole entry): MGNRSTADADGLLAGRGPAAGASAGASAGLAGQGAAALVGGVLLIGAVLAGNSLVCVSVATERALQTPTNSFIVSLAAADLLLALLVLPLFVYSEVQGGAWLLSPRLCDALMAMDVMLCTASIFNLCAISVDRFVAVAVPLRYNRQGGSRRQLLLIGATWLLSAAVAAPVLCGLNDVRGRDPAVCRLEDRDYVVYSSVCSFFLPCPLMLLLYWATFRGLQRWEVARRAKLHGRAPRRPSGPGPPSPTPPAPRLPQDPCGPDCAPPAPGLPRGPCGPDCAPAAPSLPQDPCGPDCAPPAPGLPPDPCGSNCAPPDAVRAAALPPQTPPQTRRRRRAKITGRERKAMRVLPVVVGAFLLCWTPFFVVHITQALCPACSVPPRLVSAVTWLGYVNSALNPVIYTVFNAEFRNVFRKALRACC
Description: PDSP Primary Binding target: DRD4 - Compounds are tested at 10 uM concentration, plate are incubated at room temperature in the dark for 90 minutes. Reaction are stopped by vacuum filtration onto 0.3% polyethyleneimine soaked filter mats using Filtermate harvester. Scintilation cocktail is then melted onto microwave-dried filters on a hot plate and the radio activity is counted in Microbia counter.

[4] = target: T4, Alpha-1D adrenergic receptor (Homo sapiens) (UniProt P25100)
T4 sequence (whole entry): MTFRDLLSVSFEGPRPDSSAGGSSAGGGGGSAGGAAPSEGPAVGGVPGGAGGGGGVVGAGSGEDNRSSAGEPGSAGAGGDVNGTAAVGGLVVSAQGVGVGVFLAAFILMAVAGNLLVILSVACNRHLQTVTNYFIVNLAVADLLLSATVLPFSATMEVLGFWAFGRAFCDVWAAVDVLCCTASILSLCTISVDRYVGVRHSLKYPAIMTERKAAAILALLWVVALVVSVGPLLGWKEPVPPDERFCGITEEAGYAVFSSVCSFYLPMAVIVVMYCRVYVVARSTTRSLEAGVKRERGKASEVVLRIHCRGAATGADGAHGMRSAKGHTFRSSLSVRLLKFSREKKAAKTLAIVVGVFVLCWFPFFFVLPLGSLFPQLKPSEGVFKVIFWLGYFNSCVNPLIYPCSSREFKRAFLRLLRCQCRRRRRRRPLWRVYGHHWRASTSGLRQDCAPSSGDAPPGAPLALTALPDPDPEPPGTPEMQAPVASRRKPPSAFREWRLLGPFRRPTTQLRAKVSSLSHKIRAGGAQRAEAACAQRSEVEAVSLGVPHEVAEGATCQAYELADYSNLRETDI
Description: PDSP Primary Binding target: ADRA1D - Compounds are tested at 10 uM concentration, plate are incubated at room temperature in the dark for 90 minutes. Reaction are stopped by vacuum filtration onto 0.3% polyethyleneimine soaked filter mats using Filtermate harvester. Scintilation cocktail is then melted onto microwave-dried filters on a hot plate and the radio activity is counted in Microbia counter.

[5] = target: Sigma non-opioid intracellular receptor 1 (Homo sapiens) (UniProt Q99720)
Chain of Sigma non-opioid intracellular receptor 1 (Homo sapiens) (Q99720 whole entry): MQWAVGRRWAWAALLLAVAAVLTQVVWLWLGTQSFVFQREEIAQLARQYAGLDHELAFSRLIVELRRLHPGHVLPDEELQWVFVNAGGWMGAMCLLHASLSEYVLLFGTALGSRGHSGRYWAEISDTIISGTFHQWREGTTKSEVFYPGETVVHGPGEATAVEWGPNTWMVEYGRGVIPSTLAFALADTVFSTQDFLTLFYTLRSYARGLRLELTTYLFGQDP
Description: PDSP Primary Binding target: SIGMAR1 - Compounds are tested at 10 uM concentration, plate are incubated at room temperature in the dark for 90 minutes. Reaction are stopped by vacuum filtration onto 0.3% polyethyleneimine soaked filter mats using Filtermate harvester. Scintilation cocktail is then melted onto microwave-dried filters on a hot plate and the radio activity is counted in Microbia counter.

[6] = target: 5-hydroxytryptamine receptor 2B (Homo sapiens) (UniProt P41595)
Chain of 5-hydroxytryptamine receptor 2B (Homo sapiens) (P41595 whole entry): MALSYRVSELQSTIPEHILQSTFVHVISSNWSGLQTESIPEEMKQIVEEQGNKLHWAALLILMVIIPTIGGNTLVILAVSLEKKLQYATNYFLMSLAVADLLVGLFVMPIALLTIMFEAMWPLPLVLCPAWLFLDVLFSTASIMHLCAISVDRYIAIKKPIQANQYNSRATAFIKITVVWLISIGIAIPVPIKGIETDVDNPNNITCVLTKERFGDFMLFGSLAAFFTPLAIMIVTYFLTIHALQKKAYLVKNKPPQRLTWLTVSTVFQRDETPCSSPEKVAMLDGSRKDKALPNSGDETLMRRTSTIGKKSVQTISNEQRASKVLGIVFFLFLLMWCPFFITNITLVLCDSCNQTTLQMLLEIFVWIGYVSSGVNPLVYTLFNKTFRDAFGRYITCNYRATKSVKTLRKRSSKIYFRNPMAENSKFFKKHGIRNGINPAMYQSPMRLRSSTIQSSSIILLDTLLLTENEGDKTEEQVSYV
Description: PDSP Primary Binding target: HTR2B - Compounds are tested at 10 uM concentration, plate are incubated at room temperature in the dark for 90 minutes. Reaction are stopped by vacuum filtration onto 0.3% polyethyleneimine soaked filter mats using Filtermate harvester. Scintilation cocktail is then melted onto microwave-dried filters on a hot plate and the radio activity is counted in Microbia counter.

[7] = target: Delta-type opioid receptor (Homo sapiens) (UniProt P41143)
Chain of Delta-type opioid receptor (Homo sapiens) (P41143 whole entry): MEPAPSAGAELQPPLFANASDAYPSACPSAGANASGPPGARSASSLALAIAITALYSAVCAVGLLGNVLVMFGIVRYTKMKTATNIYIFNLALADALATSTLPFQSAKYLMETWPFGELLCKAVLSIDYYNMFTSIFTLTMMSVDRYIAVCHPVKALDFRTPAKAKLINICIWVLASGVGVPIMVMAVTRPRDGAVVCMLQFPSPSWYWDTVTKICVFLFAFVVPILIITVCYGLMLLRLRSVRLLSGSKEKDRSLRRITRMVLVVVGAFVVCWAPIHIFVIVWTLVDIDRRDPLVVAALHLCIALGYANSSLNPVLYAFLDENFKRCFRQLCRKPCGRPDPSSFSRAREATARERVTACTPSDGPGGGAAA
Description: PDSP Primary Binding target: OPRD1 - Compounds are tested at 10 uM concentration, plate are incubated at room temperature in the dark for 90 minutes. Reaction are stopped by vacuum filtration onto 0.3% polyethyleneimine soaked filter mats using Filtermate harvester. Scintilation cocktail is then melted onto microwave-dried filters on a hot plate and the radio activity is counted in Microbia counter.

[8] = target: Sigma intracellular receptor 2 (Homo sapiens) (UniProt Q5BJF2)
Chain of Sigma intracellular receptor 2 (Homo sapiens) (Q5BJF2 whole entry): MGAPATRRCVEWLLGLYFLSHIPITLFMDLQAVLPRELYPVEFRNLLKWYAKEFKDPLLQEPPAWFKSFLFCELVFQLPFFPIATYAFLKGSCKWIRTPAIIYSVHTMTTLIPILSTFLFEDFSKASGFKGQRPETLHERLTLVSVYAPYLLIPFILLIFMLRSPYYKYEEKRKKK
Description: PDSP Primary Binding target: TMEM97 - Compounds are tested at 10 uM concentration, plate are incubated at room temperature in the dark for 90 minutes. Reaction are stopped by vacuum filtration onto 0.3% polyethyleneimine soaked filter mats using Filtermate harvester. Scintilation cocktail is then melted onto microwave-dried filters on a hot plate and the radio activity is counted in Microbia counter.

[9] = target: T5, Muscarinic acetylcholine receptor M1 (Homo sapiens) (UniProt P11229)
T5 sequence (whole entry): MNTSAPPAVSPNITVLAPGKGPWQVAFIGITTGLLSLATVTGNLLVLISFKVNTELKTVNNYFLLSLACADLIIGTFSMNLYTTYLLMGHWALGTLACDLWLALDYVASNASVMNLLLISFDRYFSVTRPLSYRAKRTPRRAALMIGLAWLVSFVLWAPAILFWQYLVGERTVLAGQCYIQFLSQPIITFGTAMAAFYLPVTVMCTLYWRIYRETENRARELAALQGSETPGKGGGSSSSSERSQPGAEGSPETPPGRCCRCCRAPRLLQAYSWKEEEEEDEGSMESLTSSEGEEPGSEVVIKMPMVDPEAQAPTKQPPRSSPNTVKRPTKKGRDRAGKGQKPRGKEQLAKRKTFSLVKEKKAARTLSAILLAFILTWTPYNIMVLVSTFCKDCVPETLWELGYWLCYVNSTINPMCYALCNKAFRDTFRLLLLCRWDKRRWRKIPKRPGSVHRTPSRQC
Description: PDSP Primary Binding target: CHRM1 - Compounds are tested at 10 uM concentration, plate are incubated at room temperature in the dark for 90 minutes. Reaction are stopped by vacuum filtration onto 0.3% polyethyleneimine soaked filter mats using Filtermate harvester. Scintilation cocktail is then melted onto microwave-dried filters on a hot plate and the radio activity is counted in Microbia counter.

| SMILES | inhibition [1] | inhibition [2] | inhibition [3] | inhibition [4] | inhibition [5] | inhibition [6] | inhibition [7] | inhibition [8] | inhibition [9] |
| --- | --- | --- | --- | --- | --- | --- | --- | --- | --- |
| c1nc(CC2CCNCC2)c[nH]1 | 1.07% | 10.6% | 14.9% | 7.26% | 38.7% | 30.4% | 3.71% | 27.7% | 6.59% |
| Cc1ccc(O)c([C@H](CCN(C(C)C)C(C)C)c2ccccc2)c1 | 0% | 97.6% | 35.3% | 1.72% | 90.9% | 32.5% | -8.98% | 96.9% | 99.2% |
| NCCc1cn(S(=O)(=O)c2c(Cl)nc3sccn23)c2ccccc12 | 0.78% | 15.1% | 38.7% | 38.2% | 78.7% | 98.3% | 6.57% | 82.9% | 38.9% |
| Cc1nc(C#Cc2ccnc(Cl)c2)c(C)n1-c1ccc(OC(F)(F)F)cc1 | -6.77% | -0.78% | -0.11% | 20.7% | 56.3% | 19.6% | -5.91% | 75.5% | 26.6% |
| CN1CCCC(n2nc(Cc3ccc(Cl)cc3)c3ccccc3c2=O)CC1 (stereo unspecified) | 43.1% | 36.1% | 85.5% | 88.2% | 91.9% | 89.5% | 24.1% | 97% | 82.9% |
| COc1ccc2cc(S(=O)(=O)N[C@H](CC(=O)N[C@H](Cc3ccc(CN4[C@H](C)CCC[C@@H]4C)cc3)C(=O)N(C)C(C)C)c3ccc4c(c3)OCO4)ccc2c1 | 52.8% | 69.6% | 33.2% | 15.9% | 102% | 27.5% | 8.79% | 97.7% | 44.5% |
| CN1CCC(C(=O)c2cccc(NC(=O)c3c(F)cc(F)cc3F)n2)CC1 | 64% | -1.5% | 14% | 6.55% | 81.6% | 60.6% | 1.97% | 91% | 43.1% |
| Clc1ccc(CCCOCCCN2CCCCC2)cc1 | 23.1% | 34.5% | 21.5% | 0.84% | 99.5% | 37% | -1.15% | 98.7% | 24.5% |
| CO[C@@H]1COCC[C@@H]1N[C@@H]1CC[C@@](C(=O)N2CCc3ncc(C(F)(F)F)cc3C2)(C(C)C)C1 | -4.29% | 8.25% | -3.53% | -8.81% | 81.8% | -6.19% | -2.34% | 67.9% | -6.06% |
